In brackets after ≈: the same amount, converted by molar mass.
What was measured:
Experiment in all cases: MIC by serial dilution method
Format in all cases: cell-based
[1] = system: Acinetobacter baumannii (ATCC 19606); details: ATCC19606
Procedure: (§1) Berbamine was tested for a panel of bacterial strains including Pseudomonas aeruginosa (ATCC 27853), Acinetobacter baumannii (ATCC 19606), Staphylococcus aureus (ATCC 29213) and clinical isolates of Klebsiella pneumoniae, Staphylococcus epidermidis, Staphylococcus hemolyticus and Burkholderia cepacia complex using serial dilution method. Ceftazidime was used as the standard antibiotic for validating the protocol.

[2] = system: Klebsiella pneumoniae (clinical isolate)
Procedure: as §1

[3] = system: Staphylococcus aureus (ATCC 29213); details: ATCC29213
Procedure: as §1

[4] = system: Staphylococcus epidermidis (clinical isolate)
Procedure: as §1

[5] = system: Staphylococcus hemolyticus (clinical isolate)
Procedure: as §1

## COc1cc2c3cc1Oc1c(OC)c(OC)cc4c1[C@@H](Cc1ccc(O)c(c1)Oc1ccc(cc1)C[C@@H]3N(C)CC2)N(C)CC4 [berbamine]
[1]
  MIC: 256 µg/mL (≈ 421 µM)
[2]
  MIC: > 4100 µg/mL
[3]
  MIC: 256 µg/mL (≈ 421 µM)
[4]
  MIC: 128 µg/mL (≈ 210 µM)
[5]
  MIC: 128 µg/mL (≈ 210 µM)
